Experimental data: patent US20170217976A1, “6-(AMINO ACID)-MORPHINAN DERIVATIVES IN COMBINATION WITH PERMEATION […] FOR USE AS AN ORALLY, […], TRA[…] NASALLY AD[…]” (C[…], priority 2014, published 2017)
Where two headings read alike, the source gives them in different places.

Assays:
[1] = target: T1, MOR (Rattus norvegicus, UniProt P33535); test: Opioid receptor binding, MOR, rat brain membranes
T1 construct: from tissue

[2] = target: T2, DOR (Rattus norvegicus, UniProt P33533); test: Opioid receptor binding, DOR, rat brain membranes
T2 construct: from tissue

[3] = target: T3, KOR (Cavia porcellus, UniProt P41144); test: Opioid receptor binding, KOR, guinea pig brain membranes
T3 construct: from tissue

[4] = Binding Ki MOR, Table 2-6, rat brain membranes
[5] = Binding Ki DOR, Table 2-6, rat brain membranes
[6] = Binding Ki KOR, Table 2-6, guinea pig brain membranes
[7] = Binding Ki (nM) MOR, in vitro binding assay, rat brain membranes
[8] = Binding Ki MOR, Table 1-4, rat brain membranes
[9] = Binding Ki (nM) DOR, in vitro binding assay, rat brain membranes
[10] = Binding Ki DOR, Table 1-4, rat brain membranes
[11] = Binding Ki (nM) KOR, in vitro binding assay, guinea pig brain membranes
[12] = Binding Ki KOR, Table 1-4, guinea pig brain membranes
[13] = Table 1-4, rat brain membranes, read-out: Binding Ki MOR
[14] = Table 1-4, rat brain membranes, read-out: Binding Ki DOR
[15] = Table 1-4, guinea pig brain membranes, read-out: Binding Ki KOR

T2 sequence (P33533 whole entry): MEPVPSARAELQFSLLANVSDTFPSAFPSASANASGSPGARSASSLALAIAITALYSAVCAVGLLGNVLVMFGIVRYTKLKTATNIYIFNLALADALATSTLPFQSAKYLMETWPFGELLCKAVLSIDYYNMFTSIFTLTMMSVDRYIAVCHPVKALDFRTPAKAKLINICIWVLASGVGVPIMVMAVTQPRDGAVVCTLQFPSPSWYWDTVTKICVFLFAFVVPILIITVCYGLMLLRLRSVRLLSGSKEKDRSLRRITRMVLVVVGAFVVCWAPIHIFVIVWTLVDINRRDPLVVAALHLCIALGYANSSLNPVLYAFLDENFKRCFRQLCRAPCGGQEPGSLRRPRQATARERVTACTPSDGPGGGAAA
T3 sequence (P41144 whole entry): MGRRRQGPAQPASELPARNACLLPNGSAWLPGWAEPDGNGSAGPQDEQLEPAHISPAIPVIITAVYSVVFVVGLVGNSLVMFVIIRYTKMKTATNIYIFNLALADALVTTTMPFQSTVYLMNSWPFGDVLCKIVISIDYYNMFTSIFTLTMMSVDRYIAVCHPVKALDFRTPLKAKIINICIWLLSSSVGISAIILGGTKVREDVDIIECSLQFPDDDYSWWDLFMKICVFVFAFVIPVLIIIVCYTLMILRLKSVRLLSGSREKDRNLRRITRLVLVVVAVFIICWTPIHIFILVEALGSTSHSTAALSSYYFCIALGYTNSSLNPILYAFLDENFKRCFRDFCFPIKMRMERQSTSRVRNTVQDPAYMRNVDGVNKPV
T1 sequence (P33535 whole entry): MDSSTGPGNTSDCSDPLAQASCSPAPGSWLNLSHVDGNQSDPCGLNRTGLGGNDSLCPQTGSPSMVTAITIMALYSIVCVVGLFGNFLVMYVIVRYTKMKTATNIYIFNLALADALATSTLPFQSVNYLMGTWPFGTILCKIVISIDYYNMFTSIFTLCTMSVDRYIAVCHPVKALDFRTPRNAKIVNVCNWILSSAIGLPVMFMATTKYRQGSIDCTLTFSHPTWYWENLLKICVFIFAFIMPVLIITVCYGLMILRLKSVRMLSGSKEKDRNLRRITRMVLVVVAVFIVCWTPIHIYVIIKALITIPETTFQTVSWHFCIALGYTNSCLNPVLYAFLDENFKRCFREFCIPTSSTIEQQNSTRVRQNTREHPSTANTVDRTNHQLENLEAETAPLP

| Compound | Ki [1, 4] [nM] | Ki [2, 5] [nM] | Ki [3, 6] [nM] | Ki [1, 7] [nM] | Ki [1, 8] [nM] | Ki [2, 9] [nM] | Ki [2, 10] [nM] | Ki [3, 11] [nM] | Ki [3, 12] [nM] | other results |
| --- | --- | --- | --- | --- | --- | --- | --- | --- | --- | --- |
| CO[C@@]12CC[C@H](N[C@H](C(=O)OC(C)(C)C)C(C)C)[C@@H]3Oc4c(O)ccc5c4[C@@]31CCN(CC1CC1)[C@@H]2C5 [68-tBu ester] | – | – | – | – | – | – | – | – | – | Ki ([1]; Table 2-6, rat brain membranes, read-out: Binding Ki MOR): 1.81 nM; Ki ([2]; Table 2-6, rat brain membranes, read-out: Binding Ki DOR): 0.85 nM; Ki ([3]; Table 2-6, guinea pig brain membranes, read-out: Binding Ki KOR): 3.13 nM |
| CO[C@@]12CC[C@@H](N[C@H](C(=O)OC(C)(C)C)C(C)C)[C@@H]3Oc4c(O)ccc5c4[C@@]31CCN(CC1CC1)[C@@H]2C5 [69-tBu ester] | 1.23 | 0.7 | 4.32 | – | – | – | – | – | – | – |
| CO[C@@]12CC[C@H](N[C@@H](C(=O)OC(C)(C)C)C(C)C)[C@@H]3Oc4c(O)ccc5c4[C@@]31CCN(CC1CC1)[C@@H]2C5 [70-tBu ester] | 0.63 | 0.51 | 18.8 | – | – | – | – | – | – | – |
| CO[C@@]12CC[C@@H](N[C@@H](C(=O)OC(C)(C)C)C(C)C)[C@@H]3Oc4c(O)ccc5c4[C@@]31CCN(CC1CC1)[C@@H]2C5 [71-tBu ester] | 1.94 | 0.24 | 15.2 | – | – | – | – | – | – | – |
| CO[C@@]12CC[C@H](N[C@@H](CC(C)C)C(=O)OC(C)(C)C)[C@@H]3Oc4c(O)ccc5c4[C@@]31CCN(CC1CC1)[C@@H]2C5 [76-tBu ester] | 0.13 | 0.092 | 0.8 | – | – | – | – | – | – | – |
| CO[C@@]12CC[C@@H](N[C@@H](CC(C)C)C(=O)OC(C)(C)C)[C@@H]3Oc4c(O)ccc5c4[C@@]31CCN(CC1CC1)[C@@H]2C5 [77-tBu ester] | 0.13 | 0.094 | 0.68 | – | – | – | – | – | – | – |
| CC[C@H](C)[C@H](N[C@@H]1CC[C@@]2(OC)[C@H]3Cc4ccc(O)c5c4[C@@]2(CCN3CC2CC2)[C@H]1O5)C(=O)OC(C)(C)C [78-tBu ester] | 0.98 | 0.52 | 5.67 | – | – | – | – | – | – | – |
| CCO[C@@]12CC[C@H](NCC(=O)O)[C@@H]3Oc4c(O)ccc5c4[C@@]31CCN(C)[C@@H]2C5 [Compound 5] | – | – | – | 0.57 | 0.57 | 10.3 | 10.3 | 45.2 | 45.2 | – |
| CCO[C@@]12CC[C@@H](NCC(=O)O)[C@@H]3Oc4c(O)ccc5c4[C@@]31CCN(C)[C@@H]2C5 [Compound 6] | – | – | – | 0.95 | 0.95 | 5.31 | 5.31 | 102 | 102 | – |
| CN1CC[C@]23c4c5ccc(O)c4O[C@H]2[C@@H](N[C@@H](Cc2ccccc2)C(=O)O)CC[C@@]3(O)[C@H]1C5 [Compound 11] | – | – | – | – | 2.3 | – | 19 | – | 344 | – |
| CN1CC[C@]23c4c5ccc(O)c4O[C@H]2[C@H](N[C@@H](Cc2ccccc2)C(=O)O)CC[C@@]3(O)[C@H]1C5 [Compound 12] | – | – | – | – | – | – | – | – | – | Ki [1, 13]: 6.91 nM; Ki [2, 14]: 8.29 nM; Ki [3, 15]: 634 nM |
| CC(NC1CCC2(O)C3Cc4ccc(O)c5c4C2(CCN3C)C1O5)C(=O)O (stereo not drawn) [Compound 13] | – | – | – | – | – | – | – | – | – | Ki [1, 13]: 3 nM; Ki [2, 14]: 170 nM; Ki [3, 15]: 710 nM |
| C[C@H](N[C@@H]1CC[C@@]2(O)[C@H]3Cc4ccc(O)c5c4[C@@]2(CCN3C)[C@H]1O5)C(=O)O [Compound 14] | – | – | – | – | 11 | – | 78.7 | – | 542 | – |
| CO[C@@]12CC[C@H](N[C@@H](CCC(N)=O)C(=O)O)[C@@H]3Oc4c(O)ccc5c4[C@@]31CCN(C)[C@@H]2C5 [Compound 17] | – | – | – | 3.24 | 3.24 | 5.13 | 5.13 | 351 | 351 | – |
| CO[C@@]12CC[C@@H](N[C@@H](CCC(N)=O)C(=O)O)[C@@H]3Oc4c(O)ccc5c4[C@@]31CCN(C)[C@@H]2C5 [Compound 18] | – | – | – | 2.48 | 2.48 | 4.87 | 4.87 | 290 | 290 | – |
| CO[C@@]12CC[C@H](N[C@@H](CCSC)C(=O)O)[C@@H]3Oc4c(O)ccc5c4[C@@]31CCN(C)[C@@H]2C5 [Compound 23] | – | – | – | 0.93 | 0.93 | 4.03 | 4.03 | 109 | 109 | – |
| CO[C@@]12CC[C@@H](N[C@@H](CCSC)C(=O)O)[C@@H]3Oc4c(O)ccc5c4[C@@]31CCN(C)[C@@H]2C5 [Compound 24] | – | – | – | 3.88 | 3.88 | 2.4 | 2.4 | 468 | 468 | – |
| CO[C@@]12CC[C@@H](NCC(=O)NCC(=O)O)[C@@H]3Oc4c(O)ccc5c4[C@@]31CCN(C)[C@@H]2C5 [Compound 25] | – | – | – | – | 4.62 | – | 7.52 | – | 203 | – |
| CO[C@@]12CC[C@@H](N[C@@H](CC(N)=O)C(=O)O)[C@@H]3Oc4c(O)ccc5c4[C@@]31CCN(C)[C@@H]2C5 [Compound 27] | – | – | – | 1.26 | 1.26 | 2.25 | 2.25 | 103 | 103 | – |
| CO[C@@]12CC[C@H](N[C@H](C(=O)O)[C@@H](C)O)[C@@H]3Oc4c(O)ccc5c4[C@@]31CCN(C)[C@@H]2C5 [Compound 34] | – | – | – | 1.03 | 1.03 | 4.13 | 4.13 | 120 | 120 | – |
